Tests used:
[1] = Fluorescence quantum yield of dendron dye in comparison to precursor dye; type: physicochemical
Description: Fluorescence quantum yield of title compound of example 4a in comparison to precursor dye dendron bis-1,1′-(4-sulfobutyl)indotricarbocyanine-5,5′-dicarboxylic acid, sodium salt

[2] = Investigation of solubilities in PBS by observation of precipitates; type: physicochemical; details: conjugate solutions in PBS obtained in examples 10b and 10c, on storage
Experimental: Conjugation with IgG antibody: To a solution of 1 mg antibody (IgG from bovine serum; Sigma, >95%, salt free, powder) in […] of phosphate-buffered saline (PBS, pH 7.4) is given […] (32 μL) of a solution of 0.5 mg of N-hydroxysuccinimidyl ester of example 9 in 0.1 mL water. The mixture is shaken at 25° C. for 24 h in the dark. Purification is achieved by filtration via a NAP10 column (Pharmacia) using PBS as eluent. As control conjugate, pyropheophorbide a —NHS-ester is used for conjugation with IgG giving IgG-pyropheo conjugate.
Conjugation with bovine serum albumine (BSA): To a solution of 1 mg BSA (Sigma, fraction V, >98%, powder) in […] of phosphate-buffered saline (PBS, pH 7.4) is given […] (70 μL) of a solution of 0.5 mg of N-hydroxysuccinimidyl ester of example 9 in 0.1 mL water. The mixture is shaken at 25° C. for 24 h in the dark. Purification is achieved by filtration via a NAP 10 column (Pharmacia) using PBS as eluent.
Investigation of solubilities in PBS by observation of precipitates from the solutions obtained in examples 10b and 10c: […]

Fluorescence quantum yield ([1]; MeOH) | Fluorescence quantum yield ([1]; PBS) | Molecule | Solubility in PBS by observation of precipitates [2]
0.14 | 0.07 | CC1(C)C(=CC=CC=CC=CC2=[N+](CCCCS(=O)(=O)[O-])c3ccc(C(=O)O)cc3C2(C)C)N(CCCCS(=O)(=O)[O-])c2ccc(C(=O)O)cc21.[Na+] [Precursor dye, bis-1,1′-(4-sulfobutyl)indotricarbocyanine-5,5′-dicarboxylic acid, sodium salt] | –
– | – | BSA-pyropheo: control conjugate: pyropheophorbide a NHS-ester conjugated with BSA | immediate precipates

From US20110065896A1, “POLYETHER POLYOL DENDRON CONJUGATES WITH EFFECTOR MOLECULES FOR BIOLOGICAL TARGETING” (MIVENION GMBH, priority 2008, published 2011)
